Values belong to the compound of their own block, whether it stands above or below them.
How the values were obtained:
[1] = biological target: T1, Cytochrome P450 3A4 (Homo sapiens, UniProt P08684); test: Mechanism based inhibition of human cytochrome P450 3A4 measured by lovastatin 6'-beta hydroxylase activity; assay type: ADME
[2] = biological target: CYP2D6 (Homo sapiens, UniProt P10635); test: (§1) Mechanism based inhibition of human cytochrome P450 2D6 measured by dextromethorphan O-demethylation using human liver microsomes; assay type: ADME, Microsome; conditions: human, human liver microsomes, probe dextromethorphan
Chain of CYP2D6 (P10635 whole entry): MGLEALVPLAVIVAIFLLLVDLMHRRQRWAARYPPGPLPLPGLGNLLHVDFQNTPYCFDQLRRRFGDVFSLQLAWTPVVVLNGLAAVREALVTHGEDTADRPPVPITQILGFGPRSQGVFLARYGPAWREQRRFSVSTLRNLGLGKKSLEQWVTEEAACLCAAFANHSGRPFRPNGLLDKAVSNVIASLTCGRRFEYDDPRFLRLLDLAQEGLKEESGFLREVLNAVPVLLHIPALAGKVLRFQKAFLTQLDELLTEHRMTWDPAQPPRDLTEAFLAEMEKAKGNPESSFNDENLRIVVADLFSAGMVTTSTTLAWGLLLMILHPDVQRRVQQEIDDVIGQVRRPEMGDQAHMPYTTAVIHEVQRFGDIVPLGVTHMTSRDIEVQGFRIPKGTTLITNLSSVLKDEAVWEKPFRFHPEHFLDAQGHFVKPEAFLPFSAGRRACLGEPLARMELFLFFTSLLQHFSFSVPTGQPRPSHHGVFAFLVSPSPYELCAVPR

[3] = biological target: Cytochrome P450 2D6 (Homo sapiens, UniProt P10635); test: as §1; assay type: ADME, Microsome
Chain of Cytochrome P450 2D6 (P10635 whole entry): as above

[4] = biological target: T1, Cytochrome P450 3A4; test: Mechanism based inhibition of human cytochrome P450 3A4 measured by testosterone 6-beta hydroxylation; assay type: ADME
[5] = biological target: T1, Cytochrome P450 3A4; test: (§2) Mechanism based inhibition of human cytochrome P450 3A4 measured by nifedipine oxidation, omeprazole 3-hydroxylation and omeprazole sulfoxydation; assay type: ADME
[6] = biological target: CYP3A4 (Homo sapiens, UniProt P08684); test: as §2; assay type: ADME; conditions: human
Chain of CYP3A4 (P08684 whole entry): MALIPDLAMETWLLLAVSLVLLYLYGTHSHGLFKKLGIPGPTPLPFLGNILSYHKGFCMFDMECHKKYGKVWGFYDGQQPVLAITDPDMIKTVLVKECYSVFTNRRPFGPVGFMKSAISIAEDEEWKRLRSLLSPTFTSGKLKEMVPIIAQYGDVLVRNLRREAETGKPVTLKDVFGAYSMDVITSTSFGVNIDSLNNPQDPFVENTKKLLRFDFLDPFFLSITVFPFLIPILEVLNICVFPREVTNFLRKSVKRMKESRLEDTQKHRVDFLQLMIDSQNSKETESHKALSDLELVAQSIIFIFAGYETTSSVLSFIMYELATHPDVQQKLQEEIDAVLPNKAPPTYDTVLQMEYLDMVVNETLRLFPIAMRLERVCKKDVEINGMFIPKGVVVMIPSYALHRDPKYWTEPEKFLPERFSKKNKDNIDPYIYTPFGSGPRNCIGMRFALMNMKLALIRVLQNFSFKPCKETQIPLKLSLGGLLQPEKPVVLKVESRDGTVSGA

[7] = biological target: T2, Cytochrome P450 2B1 (Rattus norvegicus, UniProt P00176); test: Mechanism based inhibition of rat cytochrome P450 CYP2B1 measured by androstenedione 16-beta-hydroxylation and R- and S- warfarin hydroxylation; assay type: ADME
T2 sequence (P00176 whole entry): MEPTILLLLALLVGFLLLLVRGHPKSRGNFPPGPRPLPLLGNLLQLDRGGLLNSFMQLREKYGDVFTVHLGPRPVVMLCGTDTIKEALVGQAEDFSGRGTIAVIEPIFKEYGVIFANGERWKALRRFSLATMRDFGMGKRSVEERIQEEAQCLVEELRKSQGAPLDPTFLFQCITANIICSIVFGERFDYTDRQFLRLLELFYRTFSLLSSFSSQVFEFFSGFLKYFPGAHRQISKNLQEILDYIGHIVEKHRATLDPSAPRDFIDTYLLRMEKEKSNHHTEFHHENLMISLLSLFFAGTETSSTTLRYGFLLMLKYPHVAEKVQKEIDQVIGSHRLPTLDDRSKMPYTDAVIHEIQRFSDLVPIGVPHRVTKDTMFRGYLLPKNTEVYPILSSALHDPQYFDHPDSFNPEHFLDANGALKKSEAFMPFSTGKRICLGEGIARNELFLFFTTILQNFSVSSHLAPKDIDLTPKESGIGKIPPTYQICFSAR

[8] = biological target: T3, Cytochrome P450 2B4 (Oryctolagus cuniculus, UniProt P00178); test: (§3) Mechanism based inhibition of rabbit cytochrome P450 CYP2B4 measured by 7-EFC O-deethylation activity; assay type: ADME
T3 sequence (P00178 whole entry): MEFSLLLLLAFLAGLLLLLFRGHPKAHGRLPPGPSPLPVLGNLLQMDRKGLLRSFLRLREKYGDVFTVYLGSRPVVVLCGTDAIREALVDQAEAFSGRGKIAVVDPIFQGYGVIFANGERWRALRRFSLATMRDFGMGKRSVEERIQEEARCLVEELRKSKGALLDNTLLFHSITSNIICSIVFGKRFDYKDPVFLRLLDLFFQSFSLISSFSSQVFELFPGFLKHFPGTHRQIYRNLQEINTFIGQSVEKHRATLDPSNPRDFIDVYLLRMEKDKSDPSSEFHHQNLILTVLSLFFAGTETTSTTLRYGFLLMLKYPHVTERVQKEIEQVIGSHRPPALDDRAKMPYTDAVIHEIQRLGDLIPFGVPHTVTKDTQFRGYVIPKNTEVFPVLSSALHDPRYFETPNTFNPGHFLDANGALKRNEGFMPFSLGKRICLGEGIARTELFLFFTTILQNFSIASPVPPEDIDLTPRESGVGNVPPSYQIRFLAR

[9] = biological target: T4, CYP2B4 (Oryctolagus cuniculus, UniProt P00178); test: as §3; assay type: ADME; conditions: rabbit, probe 7-EFC (O-deethylation)
T4 sequence (P00178 whole entry): T3 sequence (P00178 whole entry)

[10] = biological target: Cytochrome P450 2E1 (Oryctolagus cuniculus) (UniProt P08682); test: Mechanism based inhibition of rabbit cytochrome P450 CYP2E1 measured by 7-EFC O-deethylation activity; conditions: probe 7-EFC (O-deethylation)
Chain of Cytochrome P450 2E1 (Oryctolagus cuniculus) (P08682 whole entry, looked up): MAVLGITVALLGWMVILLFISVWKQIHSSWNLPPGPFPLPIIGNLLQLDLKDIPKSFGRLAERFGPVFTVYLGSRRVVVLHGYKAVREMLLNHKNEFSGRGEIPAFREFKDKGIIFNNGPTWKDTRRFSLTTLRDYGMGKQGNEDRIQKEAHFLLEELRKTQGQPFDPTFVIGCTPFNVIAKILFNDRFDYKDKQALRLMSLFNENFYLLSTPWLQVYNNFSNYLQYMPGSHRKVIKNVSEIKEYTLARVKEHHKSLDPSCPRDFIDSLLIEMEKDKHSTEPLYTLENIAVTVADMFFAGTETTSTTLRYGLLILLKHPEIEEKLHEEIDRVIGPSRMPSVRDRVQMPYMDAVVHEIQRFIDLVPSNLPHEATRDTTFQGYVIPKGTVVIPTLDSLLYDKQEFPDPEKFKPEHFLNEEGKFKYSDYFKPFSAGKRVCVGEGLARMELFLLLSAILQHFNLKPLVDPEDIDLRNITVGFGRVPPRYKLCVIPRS

[11] = biological target: T2, Cytochrome P450 2B1; test: Mechanism based inhibition of rat cytochrome P450 CYP2B1 partition ratio; assay type: ADME
[12] = biological target: T5, CYP2B1 (Rattus norvegicus, UniProt P00176); test: (§4) Mechanism based inhibition of rat cytochrome P450 CYP2B1 measured by 7-pentoxyresorufin […] activity (PROD); assay type: ADME; conditions: rat, probe 7-pentoxyresorufin ([…], PROD)
T5 sequence (P00176 whole entry): T2 sequence (P00176 whole entry)

[13] = biological target: T2, Cytochrome P450 2B1; test: as §4; assay type: ADME
[14] = biological target: T6, Cytochrome P450 1A2 (Rattus norvegicus, UniProt P04799); test: (§5) Mechanism based inhibition of rat cytochrome P450 CYP1A2 measured by 7-methoxyresorufin O-demethylation (MROD); assay type: ADME
T6 sequence (P04799 whole entry): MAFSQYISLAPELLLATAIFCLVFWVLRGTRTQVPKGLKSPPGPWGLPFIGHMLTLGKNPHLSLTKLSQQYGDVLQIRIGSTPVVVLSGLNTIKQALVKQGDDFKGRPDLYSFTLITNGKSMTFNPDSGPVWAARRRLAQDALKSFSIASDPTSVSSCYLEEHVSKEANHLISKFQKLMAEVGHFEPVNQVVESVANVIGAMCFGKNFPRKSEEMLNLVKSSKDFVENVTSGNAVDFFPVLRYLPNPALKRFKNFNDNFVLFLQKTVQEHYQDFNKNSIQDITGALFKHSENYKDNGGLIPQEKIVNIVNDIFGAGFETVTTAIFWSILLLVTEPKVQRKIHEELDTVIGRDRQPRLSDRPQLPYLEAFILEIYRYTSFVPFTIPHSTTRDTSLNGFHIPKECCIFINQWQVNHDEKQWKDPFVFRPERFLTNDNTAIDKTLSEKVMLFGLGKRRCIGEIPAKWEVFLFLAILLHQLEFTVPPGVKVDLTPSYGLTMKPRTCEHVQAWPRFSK

[15] = biological target: T7, CYP1A2 (Rattus norvegicus, UniProt P04799); test: as §5; assay type: ADME; conditions: rat, probe 7-methoxyresorufin (O-demethylation, MROD)
T7 sequence (P04799 whole entry): T6 sequence (P04799 whole entry)

[16] = biological target: T3, Cytochrome P450 2B4; test: Mechanism based inhibition of rabbit cytochrome P450 CYP2B4 partition ratio; assay type: ADME
[17] = biological target: T8, CYP1A2 (Homo sapiens, UniProt P05177); test: Mechanism based inhibition of human cytochrome P450 1A2; assay type: ADME
T8 sequence (P05177 whole entry): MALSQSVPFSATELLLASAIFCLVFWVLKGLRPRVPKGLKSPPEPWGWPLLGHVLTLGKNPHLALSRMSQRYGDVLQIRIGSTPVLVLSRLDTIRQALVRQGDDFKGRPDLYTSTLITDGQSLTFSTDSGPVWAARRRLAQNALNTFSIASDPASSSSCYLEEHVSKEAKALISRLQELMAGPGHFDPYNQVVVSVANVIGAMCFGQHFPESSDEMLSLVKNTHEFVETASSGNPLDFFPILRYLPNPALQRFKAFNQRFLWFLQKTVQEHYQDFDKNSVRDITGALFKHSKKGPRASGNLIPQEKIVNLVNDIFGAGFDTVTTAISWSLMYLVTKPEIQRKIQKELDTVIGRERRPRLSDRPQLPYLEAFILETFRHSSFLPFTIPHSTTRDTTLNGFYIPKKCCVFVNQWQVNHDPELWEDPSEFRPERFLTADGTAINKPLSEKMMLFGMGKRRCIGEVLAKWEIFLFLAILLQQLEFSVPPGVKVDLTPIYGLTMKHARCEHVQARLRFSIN

T1 sequence (P08684 whole entry): as the sequence (P08684 whole entry) above

Structure (SMILES): O=C(NC(/C=C/S(=O)(=O)c1ccccc1)CCc1ccccc1)C(Cc1ccccc1)NC(=O)N1CCOCC1 (centres undefined)
- mechanism based inhibition [1]: Cytochrome P450 mechanistic inhibitor: PMID 11038163

- kinact [2]: 0.00233 s⁻¹
- Ki [3]: 4.8 µM
Structure (SMILES): Fc1cnc(N2CCN(CC3=NC(c4ccccc4)=NC3)CC2)nc1

- Ki [5]: 0.31 µM
- kinact [6]: 0.000833 s⁻¹
Structure (SMILES): C=C(C)C(CC/C(C)=C/COc1c2ccoc2cc2oc(=O)ccc12)OC(C)(C)C(O)CC/C(C)=C/COc1c2ccoc2cc2oc(=O)ccc12 (centres undefined)
- mechanism based inhibition [4]: Cytochrome P450 mechanistic inhibitor: PMID 10859150

Structure (SMILES): O=C(NCCc1ccc(Br)cc1)C(F)Cl (centres undefined)
- mechanism based inhibition [7]: Cytochrome P450 mechanistic inhibitor: PMID 1971568

Structure (SMILES): O=C(NCCc1ccc([N+](=O)[O-])cc1)C(F)Cl (centres undefined)
- mechanism based inhibition [7]: Cytochrome P450 mechanistic inhibitor: PMID 1971568

- Ki [8]: 75 µM
- kinact [9]: 0.00383 s⁻¹
- kinact [10]: 0.00333 s⁻¹
Structure (SMILES): C#CC(C)(C)C

- partition_ratio [11]: 25
Structure (SMILES): C#Cc1ccc2ccc(=O)oc2c1

Structure (SMILES): C#Cc1cc2ccccc2c2ccccc12
- kinact [12]: 0.0075 s⁻¹
- Ki [13]: 0.14 µM
- Ki [14]: 0.03 µM
- kinact [15]: 0.000667 s⁻¹

Structure (SMILES): C#CCN(C)C(C)CCCCC.C#CCN[C@@H](C)CCCCC.C#CCN[C@H](C)CCCCC (centres undefined)
- kinact [12]: 0.00133 s⁻¹
- Ki [13]: 0.8 µM

- Ki [8]: 37 µM
- kinact [9]: 0.0533 s⁻¹
- partition_ratio [16]: 12
- kinact [10]: 0.002 s⁻¹
Structure (SMILES): C#CC(C)OC(C)(C)C (centres undefined)
- mechanism based inhibition ([8]; rabbit): Cytochrome P450 mechanistic inhibitor: PMID 15751959

- kinact [17]: 0.0148 s⁻¹
Structure (SMILES): Cc1nc2c([nH]1)c(=O)n(C)c(=O)n2CC1CCCCC1

— ChEMBL document CHEMBL1743341, “Cytochrome p450 enzymes mechanism based inhibitors: common sub-structures and reactivity” (Curr Drug Metab, 2005)
